Test results: patent US8546339B2, “Soothing cosmetic or pharmaceutical composition comprising a peptide which activates HMG-CoA reductase” (ISP Investments Inc., priority 2008, dated 2013)
Where no end group is shown, it is not given here.

Key:
[1] = test system: interleukin-1 alpha (IL-1 alpha); experiment: Ex vivo IL-1 alpha secretion by human skin biopsies (ELISA); assay type: cell-based; details: peptide 0.5 ppm 24 h, vs controls untreated by the peptide
Experimental: The goal of this study is to determine the ex vivo effect of peptide SEQ ID No. 5 on the production of the IL-1 alpha cellular inflammation mediator by biopsies of human skin cultivated under standard conditions or subjected to stress by UVB radiation or SDS.
5 mm-diameter biopsies of human skin are maintained in culture at the air-liquid interface in the presence of standard culture medium. The samples are treated with a 1% dilution of a solution at 50 ppm of peptide SEQ ID No. 5 for 24 hours, and then irradiated by UVB radiation (200 mJ/cm^2) and put back in culture for 24 hours, or subjected to contact with SDS at 2.5% for 24 hours in the presence of the same concentration of peptide SEQ ID No. 5. Controls untreated by the peptide are carried out under the same conditions. At the end of the experiment, the quantity of interleukin-1 alpha salted out in the culture medium is assayed by the ELISA technique.

HMG-CoA reductase = experiment: Expression of HMG-CoA reductase in normal human keratinocytes (immunofluorescence); assay type: cell-based; details: peptide 0.5 ppm (1% of 50 ppm stock), 24 or 48 hours, anti-HMG-CoA reductase antibody, epifluorescence microscopy
Experimental: The goal of this study is to determine the influence of peptide SEQ ID No. 5 on the expression of HMG-CoA reductase in normal human keratinocytes.
Normal human keratinocytes in culture are treated with a 1% stock solution at 50 ppm of peptide SEQ ID No. 5 for 24 or 48 hours (the medium in the presence of the active ingredient is changed every 24 hours). The cells are then washed and fixed in cold methanol for 4 minutes at 4° C. The cells are incubated in the presence of a polyclonal rabbit antibody specific for HMG-CoA reductase (Millipore, Upstate), and then a secondary antibody coupled with a fluorescent dye. The cells are then examined by epifluorescence microscope (Nikon Eclipse E600 microscope).

Arg-Gly-Lys-Ser-NH2 (RGKS-NH2) [SEQ ID No. 5]
reduction of IL-1 alpha released in culture medium after SDS stress ([1]; SDS 2.5% for 24 hours with peptide): 58%
reduction of IL-1 alpha released in culture medium after UVB radiation ([1]; UVB 200 mJ/cm^2, 24 h culture): 40%
HMG-CoA reductase expression (cytoplasmic fluorescence) (HMG-CoA reductase): more intense cytoplasmic fluorescence
